Results as given in PubChem BioAssay (NCI).
“And” between values parts separate entries of the source, which are not always exact repeats. Equal entries are not always repeated.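 Each compound was tested at five concentrations against cells in 96-well plates for 48 hours. At the GI50, growth is halved. TGI marks complete inhibition of growth.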

How the values were obtained:
Assay in all cases: inhibition of tumour cell growth, NCI panel, 48 h
SNB-19 CNS = test system: SNB-19 CNS
HOP-92 NSCLC = test system: HOP-92 NSCLC
OVCAR-3 ovarian = test system: OVCAR-3 ovarian
HT29 colon = test system: HT29 colon
K-562 leukemia = test system: K-562 leukemia
SK-MEL-5 melanoma = test system: SK-MEL-5 melanoma
A498 renal = test system: A498 renal
NCI-H226 lung = test system: NCI-H226 lung
DU-145 prostate = test system: DU-145 prostate
UO-31 renal = test system: UO-31 renal
UACC-257 melanoma = test system: UACC-257 melanoma
COLO 205 colon = test system: COLO 205 colon
786-0 renal = test system: 786-0 renal
IGROV1 ovarian = test system: IGROV1 ovarian
SNB-75 CNS = test system: SNB-75 CNS
CAKI-1 renal = test system: CAKI-1 renal
NCI/ADR-RES ovarian = test system: NCI/ADR-RES ovarian
HOP-62 NSCLC = test system: HOP-62 NSCLC
HL-60(TB) leukemia = test system: HL-60(TB) leukemia
UACC-62 melanoma = test system: UACC-62 melanoma
RXF 393 renal = test system: RXF 393 renal
MDA-MB-435 = test system: MDA-MB-435
NCI-H23 lung = test system: NCI-H23 lung
SK-MEL-28 melanoma = test system: SK-MEL-28 melanoma
KM12 colon = test system: KM12 colon
LOX IMVI melanoma = test system: LOX IMVI melanoma
SW-620 colon = test system: SW-620 colon
HCT-116 colon = test system: HCT-116 colon
SR leukemia = test system: SR leukemia
MCF7 breast = test system: MCF7 breast
MDA-MB-231 breast = test system: MDA-MB-231 breast
RPMI-8226 leukemia = test system: RPMI-8226 leukemia
TK-10 renal = test system: TK-10 renal
EKVX NSCLC = test system: EKVX NSCLC
SK-OV-3 ovarian = test system: SK-OV-3 ovarian
CCRF-CEM leukemia = test system: CCRF-CEM leukemia
T-47D breast = test system: T-47D breast
HCT-15 colon = test system: HCT-15 colon
HCC-2998 colon = test system: HCC-2998 colon
SN12C renal = test system: SN12C renal
ACHN renal = test system: ACHN renal
NCI-H460 lung = test system: NCI-H460 lung
OVCAR-5 ovarian = test system: OVCAR-5 ovarian
OVCAR-4 ovarian = test system: OVCAR-4 ovarian
SF-539 CNS = test system: SF-539 CNS
MOLT-4 leukemia = test system: MOLT-4 leukemia
NCI-H522 lung = test system: NCI-H522 lung
SF-295 CNS = test system: SF-295 CNS
HS 578T breast = test system: HS 578T breast
U251 CNS = test system: U251 CNS
BT-549 breast = test system: BT-549 breast
MALME-3M melanoma = test system: MALME-3M melanoma
OVCAR-8 ovarian = test system: OVCAR-8 ovarian
PC-3 prostate = test system: PC-3 prostate
A549 NSCLC = test system: A549 NSCLC
SF-268 CNS = test system: SF-268 CNS
SK-MEL-2 melanoma = test system: SK-MEL-2 melanoma

CN(C)c1ccc2nc3ccc(N)cc3[n+](-c3ccccc3)c2c1
GI50 (SNB-19 CNS): 1.69 µM
TGI (SNB-19 CNS): 47.1 µM
GI50 (HOP-92 NSCLC): 1.85 µM
TGI (HOP-92 NSCLC): 8.24 µM
GI50 (OVCAR-3 ovarian): 0.474 µM and 0.317 µM
TGI (OVCAR-3 ovarian): 9.02 µM and 12.7 µM
GI50 (HT29 colon): 2.74 µM and 3.19 µM
TGI (HT29 colon): 16.1 µM and 16.2 µM
GI50 (K-562 leukemia): 1.51 µM and 0.424 µM
TGI (K-562 leukemia): > 100 µM and 68.7 µM
GI50 (SK-MEL-5 melanoma): 1.07 µM and 0.255 µM
TGI (SK-MEL-5 melanoma): 3.02 µM and 0.827 µM
GI50 (A498 renal): 3.94 µM and 19.6 µM
TGI (A498 renal): 37.8 µM and > 100 µM
GI50 (NCI-H226 lung): 8.77 µM and 13 µM
TGI (NCI-H226 lung): 42 µM and 70.1 µM
GI50 (DU-145 prostate): 5.32 µM and 1.95 µM
TGI (DU-145 prostate): 33 µM and 3.96 µM
GI50 (UO-31 renal): 23.6 µM and 4.98 µM
TGI (UO-31 renal): > 100 µM and 24.8 µM
GI50 (UACC-257 melanoma): 0.757 µM and 0.705 µM
TGI (UACC-257 melanoma): > 25.2 µM and 3.33 µM
GI50 (COLO 205 colon): 0.759 µM and 0.598 µM
TGI (COLO 205 colon): 2.99 µM and 2.75 µM
GI50 (786-0 renal): 10.9 µM and 2.19 µM
TGI (786-0 renal): 33.6 µM and 49.2 µM
GI50 (IGROV1 ovarian): 3.31 µM and 1.74 µM
TGI (IGROV1 ovarian): 39.3 µM and 5.53 µM
GI50 (SNB-75 CNS): 2.44 µM and 2.8 µM
TGI (SNB-75 CNS): 17 µM and 9.52 µM
TGI (CAKI-1 renal): 52.8 µM and 7.47 µM
TGI (NCI/ADR-RES ovarian): > 100 µM and 11.9 µM
GI50 (HOP-62 NSCLC): 2.31 µM and 2.92 µM
TGI (HOP-62 NSCLC): 18.9 µM and 14.4 µM
GI50 (HL-60(TB) leukemia): 0.578 µM
TGI (HL-60(TB) leukemia): 15.9 µM
GI50 (UACC-62 melanoma): 2.04 µM and 1.85 µM
TGI (UACC-62 melanoma): 13 µM and 10.3 µM
GI50 (RXF 393 renal): 16.3 µM and 10.8 µM
TGI (RXF 393 renal): 67.5 µM and 26.6 µM
GI50 (MDA-MB-435): 1.79 µM and 1.09 µM
TGI (MDA-MB-435): 8.77 µM and 2.91 µM
GI50 (NCI-H23 lung): 1.73 µM and 0.461 µM
TGI (NCI-H23 lung): 19.8 µM and 5.1 µM
GI50 (SK-MEL-28 melanoma): 3.76 µM and 7.38 µM
TGI (SK-MEL-28 melanoma): 20 µM and 37.7 µM
GI50 (KM12 colon): 1.75 µM and 1.51 µM
TGI (KM12 colon): 10.2 µM and 26.1 µM
GI50 (LOX IMVI melanoma): 2.65 µM and 0.515 µM
TGI (LOX IMVI melanoma): 18.3 µM
GI50 (SW-620 colon): 2.98 µM and 1.18 µM
TGI (SW-620 colon): 31 µM and 12.2 µM
GI50 (HCT-116 colon): 2.89 µM and 0.42 µM
TGI (HCT-116 colon): 20.4 µM and 2.08 µM
GI50 (SR leukemia): 2.44 µM and 0.533 µM
GI50 (MCF7 breast): 0.519 µM and 0.369 µM
TGI (MCF7 breast): 30.3 µM and 3.15 µM
GI50 (MDA-MB-231 breast): 4.61 µM and 0.492 µM
TGI (MDA-MB-231 breast): 31.5 µM and 17.1 µM
GI50 (RPMI-8226 leukemia): 0.482 µM and 0.177 µM
TGI (RPMI-8226 leukemia): 7.4 µM and 10 µM
GI50 (TK-10 renal): 3.87 µM and 2.48 µM
TGI (TK-10 renal): 27.4 µM and 28.4 µM
GI50 (EKVX NSCLC): 1.39 µM and 0.87 µM
TGI (EKVX NSCLC): 23.1 µM and 23 µM
GI50 (SK-OV-3 ovarian): 18.2 µM and 4.73 µM
TGI (SK-OV-3 ovarian): 67.3 µM and > 100 µM
GI50 (CCRF-CEM leukemia): 4.09 µM and 1.25 µM
TGI (CCRF-CEM leukemia): > 100 µM and 21.7 µM
GI50 (T-47D breast): 0.457 µM and 0.662 µM
TGI (T-47D breast): 6.5 µM and 21 µM
TGI (HCT-15 colon): > 100 µM and 24 µM
GI50 (HCC-2998 colon): 1.87 µM and 9.25 µM
TGI (HCC-2998 colon): 16.1 µM and 41.8 µM
GI50 (SN12C renal): 1.92 µM and 1.34 µM
TGI (SN12C renal): 46 µM and 10.4 µM
TGI (ACHN renal): 76.9 µM and 31.8 µM
GI50 (NCI-H460 lung): 2.53 µM and 1.9 µM
TGI (NCI-H460 lung): 11.4 µM and 11.2 µM
GI50 (OVCAR-5 ovarian): 13.3 µM
TGI (OVCAR-5 ovarian): > 81.7 µM
GI50 (OVCAR-4 ovarian): 0.396 µM and 0.28 µM
GI50 (SF-539 CNS): 2.61 µM and 0.332 µM
TGI (SF-539 CNS): 13.5 µM and 6.59 µM
GI50 (MOLT-4 leukemia): 5.14 µM and 0.703 µM
GI50 (NCI-H522 lung): 1.72 µM
TGI (NCI-H522 lung): 10.5 µM
GI50 (SF-295 CNS): 1.75 µM and 0.584 µM
TGI (SF-295 CNS): 7.41 µM and 24.4 µM
GI50 (HS 578T breast): 3.24 µM and 2.93 µM
TGI (HS 578T breast): 28 µM and 56.2 µM
GI50 (U251 CNS): 1.35 µM and 0.64 µM
TGI (U251 CNS): 34.4 µM and 6.5 µM
GI50 (BT-549 breast): 2.46 µM and 0.584 µM
TGI (BT-549 breast): 14.2 µM and 61.9 µM
GI50 (MALME-3M melanoma): 1.57 µM and 0.56 µM
TGI (MALME-3M melanoma): 10.1 µM and 4.59 µM
GI50 (OVCAR-8 ovarian): 2.02 µM and 1.07 µM
TGI (OVCAR-8 ovarian): > 66 µM and 7.69 µM
TGI (PC-3 prostate): 31.2 µM and 3.22 µM
TGI (A549 NSCLC): > 100 µM and 11.6 µM
GI50 (SF-268 CNS): 1.94 µM and 1.7 µM
TGI (SF-268 CNS): 20.9 µM and 19.7 µM
GI50 (SK-MEL-2 melanoma): 2.39 µM and 1.74 µM
TGI (SK-MEL-2 melanoma): 6.16 µM and 11.1 µM
